Assay results as given in ChEMBL document CHEMBL4811257, “Dipeptide inhibitors of the prostate specific membrane antigen (PSMA): A comparison of urea and thiourea derivatives” (Bioorg Med Chem Lett, 2021).

Columns and labels:
[1] = Stability of the compound in PBS at pH 7 measured for 48 hrs by 1H-NMR analysis; type: physicochemical; conditions: buffer, pH 7, 48 h
[2] = Stability of the compound in presence of GCPII/PSMA expressing human DU-145 cells by 1H-NMR analysis; type: ADME, cell-based
[3] = biological target: Glutamate carboxypeptidase 2 (Homo sapiens, UniProt Q04609); assay: Inhibition of GCPII (unknown origin) expressed in DU-145 cells after 1 hr by [67Ga]Ga-DOTA-PSMA competitive binding assay with gamma counting
Sequence of Glutamate carboxypeptidase 2 (Q04609 whole entry): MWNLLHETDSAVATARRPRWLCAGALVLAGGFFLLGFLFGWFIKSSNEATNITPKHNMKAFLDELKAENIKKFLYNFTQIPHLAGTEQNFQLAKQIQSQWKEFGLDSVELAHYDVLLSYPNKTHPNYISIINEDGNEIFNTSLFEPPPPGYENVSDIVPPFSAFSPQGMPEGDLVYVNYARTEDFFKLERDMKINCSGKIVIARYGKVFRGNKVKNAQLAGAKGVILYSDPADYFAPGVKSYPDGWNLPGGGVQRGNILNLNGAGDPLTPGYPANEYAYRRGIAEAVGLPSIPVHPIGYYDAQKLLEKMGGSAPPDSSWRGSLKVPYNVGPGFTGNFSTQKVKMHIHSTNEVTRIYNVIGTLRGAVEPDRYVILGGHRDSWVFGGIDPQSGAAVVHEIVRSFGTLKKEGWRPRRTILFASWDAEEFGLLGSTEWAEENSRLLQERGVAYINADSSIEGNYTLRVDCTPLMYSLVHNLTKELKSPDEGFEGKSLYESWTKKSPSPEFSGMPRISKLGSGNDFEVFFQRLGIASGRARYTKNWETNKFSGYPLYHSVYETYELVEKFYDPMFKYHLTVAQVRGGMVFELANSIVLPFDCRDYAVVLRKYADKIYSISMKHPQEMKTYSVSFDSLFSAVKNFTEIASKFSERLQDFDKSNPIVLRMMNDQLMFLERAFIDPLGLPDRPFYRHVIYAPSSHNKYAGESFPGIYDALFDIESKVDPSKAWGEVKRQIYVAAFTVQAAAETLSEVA

| Compound | Stabilty [1] | Stabilty [2] | IC50 [3] [µM] |
| --- | --- | --- | --- |
| O=C(O)CC[C@H](NC(=O)N[C@@H](CCC(=O)O)C(=O)O)C(=O)O | Stable | Stable | 1.34 |
| O=C(O)CC[C@H](NC(=S)N[C@@H](CCC(=O)O)C(=O)O)C(=O)O | Stable | Stable | 135 |
